{
  "source": "patent US20250114430A1",
  "about": "“MODIFIED PEPTIDOMIMETICS AND METHODS OF USE” (The University of North Carolina at Chapel Hill, priority 2021, published 2025)",
  "key": {"P. aeruginosa": {"test_system": "P. aeruginosa", "assay": "Murine model of P. aeruginosa bacterial pneumonia", "assay_type": "in vivo, mice", "protocol": "FIGS. 15A-15D show (FIG. 15A) a schematic of a murine model of P. aeruginosa (top left panel), and bar graphs of (FIG. 15B) BAL monocytes, (FIG. 15C) BAL neutrophils, and (FIG. 15D) bacterial counts in whole lung at 24 hours quantified following experiments according to the mouse model as schematized and conditions as noted on the x-axis.\nFIGS. 16A-16G show data from further P. aeruginosa infection experiments. […] Increased inflammation is seen in infection as indicated in the alveolar/gas exchange regions of the lungs which show alveolar damage and thickening that prevent gas exchange. ELD607 treatment normalized alveoli histology similar to naïve lung conditions.\nMice were exposed to vehicle or P. aeruginosa±ELD607 and BAL was obtained and stained with an anti-Orai1 antibody, fluorescent 2° and DAPI. […] FIG. 16G panels B and C show plots showing fluorescence intensities of Orai1 in macrophages and neutrophils, respectively. ***p<0.001 different as indicated. ND=no detectable neutrophils in these groups.\nFurther in vivo experiments were performed. […] Bronchoalveolar lavage (BAL) and organ collection was performed 24 hours following treatment with peptide (FIG. 15A). […] Moreover, 24 h after infection, about 10^9 CFUs could be detected in murine whole lung homogenate. However, ELD607 caused an ˜5 log10 reduction in lung bacteria (FIG. 15D).\nMice were exposed to vehicle or P. aeruginosa±ELD607 and BAL was obtained and stained with an anti-Orai1 antibody, fluorescent 2° and DAPI. […] FIG. 16G panels B and C show plots showing fluorescent intensities of Orai1 in macrophages and neutrophils, respectively.\nTo examine Orai1 levels, BAL was then obtained from P. aeruginosa-infected mice, immediately cytospun, fixed in PFA and stained with an antibody against Orai1."}, "[1]": {"test_system": "P. aeruginosa, Staphylococcus aureus, and Haemophilus influenzae", "assay": "Murine bacterial infection models (three organisms)", "assay_type": "in vivo, mice", "protocol": "Mice were dosed intranasally with P. aeruginosa (PA), S. aureus (Sa), or H. influenzae followed by vehicle (saline) or 0.5 mg/kg of ELD100 or ELD607 per mouse. FIG. 19 panels A, F, and K show total cell counts; FIG. 19 panels B, G, and L show BAL macrophages; FIG. 19 panels C, H, and M show BAL neutrophils; FIG. 19 panels D, I, and N show whole lung CFUs; and FIG. 19 panels E, J, and O show spleen CFUs. Top row, P. aeruginosa, middle row, S. aureus, bottom row, H. influenzae. * p<0.05 different from naïve mice; #p<0.05 different from infected mice.\nELD607 reduces neutrophilia and increases lung bacterial clearance in multiple murine bacterial infection models. Neutrophilia is a common feature of both Gram-positive and Gram-negative lung infections. Accordingly, further studies were performed with P. aeruginosa, Staphylococcus aureus, and Haemophilus influenzae (FIG. 19 panels B, C, G, H, L, and M). After infection with all three organisms, significant levels of bacteria were detected in the lung and spleen, and the infections increased total BAL cell numbers due to neutrophilia, while relative BAL macrophage numbers declined (FIG. 19 panels A-O). […] Moreover, 24 h after infection, about 10^9 CFUs could be detected in murine whole lung homogenate."}, "[2]": {"test_system": "SARS-CoV-2 S1 pseudovirus", "assay_type": "cell-based"}, "[3]": {"test_system": "Primary human bronchial epithelial cultures", "assay": "Cytotoxicity and transepithelial resistance in primary human bronchial epithelial cultures", "assay_type": "cell-based", "settings": "1 mM, 24 h", "protocol": "FIG. 28 panels C and D show cell viability per arbitrary units (left) and transepithelial resistance (right) of vehicle vs. ELD607 before and after treatment.\nELD607 is non-toxic in vitro and in vivo. To investigate potential cytotoxic effects of ELD607, […] were exposed to 100 μM ELD607 for 24 h. Cytotoxicity was assessed by exposing cells to calcein to label live cells and fluorescence read by multi-plate reader. […] Primary human bronchial epithelial cultures were exposed to 1 mM ELD607 or vehicle control (saline) for 24 h. Cytotoxicity was assessed by confocal microscopy using calcein and propidium iodide to label live and dead cells respectively. […] Transepithelial resistance was also measured before and after treatment as a measure of epithelial integrity."}, "house dust mite allergen": {"test_system": "house dust mite allergen", "assay": "House dust mite (HDM) allergic lung inflammation model", "assay_type": "in vivo, mice", "settings": "HDM 14 days, 0.5 mg/kg intranasally for 2 days", "protocol": "Mice were exposed to HDM allergen for 14 days, with […] ELD100 or […] ELD607 instilled intranasally for 2 days before sacrifice.\nELD607 reduces allergic inflammation. Mice were exposed to house dust mite allergen for 14 days. 0.5 mg/kg ELD100 or ELD607 were instilled intranasally for 2 days before sacrifice."}, "Orai1": {"target": "Orai1 (Homo sapiens, UniProt Q96D31)", "sequence (Q96D31 whole entry)": "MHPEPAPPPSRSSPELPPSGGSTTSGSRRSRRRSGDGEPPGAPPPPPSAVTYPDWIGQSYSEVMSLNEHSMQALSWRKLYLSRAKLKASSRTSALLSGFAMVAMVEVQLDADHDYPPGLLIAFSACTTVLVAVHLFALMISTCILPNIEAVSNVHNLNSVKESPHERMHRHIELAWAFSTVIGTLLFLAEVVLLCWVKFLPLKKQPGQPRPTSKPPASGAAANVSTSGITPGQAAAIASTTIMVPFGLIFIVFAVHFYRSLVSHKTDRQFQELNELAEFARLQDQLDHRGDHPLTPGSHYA", "assay": "Dose response of Ca^2+ influx (SOCE), Ca^2+ add back approach, HEK293T cells", "assay_type": "cell-based", "parameters": "Endogenous Orai1/store operated Ca^2+ influx have been extensively studied in HEK293T cells; endogenous in cells; host or cells: HEK293T", "protocol": "HEK293T cells were cultured in 384 well plates. Cells were then exposed to vehicle or […] ELD607 for 1 h. 100 nM thapsigargin was then added followed by extracellular Ca^2+ to differentiate ER Ca^2+ release and SOCE. n=8-12 cultures per data point.\nELD607 requires Orai1 expression to inhibit Ca^2+ signaling. […] Using this approach, curves were fitted to the data and the 50% inhibitory concentrations (IC50S) were calculated."}, "[4]": {"settings": "10^7 CFU, 0.51 mg/kg intranasal"}, "[5]": {"settings": "0.5 mg/kg intranasal, 24 h after infection"}},
  "note": "Entries after “also recorded” stand apart in the source; their conditions may differ. No end group written: not given here.",
  "data": [
    {"sequence": "VHDIVNMLIRG [ELD607, VHDIVNMLIRG]", "values": [
      {"measurement": "BAL monocytes", "setting": "P. aeruginosa; 10^7 CFU intratracheally, 0.51 mg/kg peptide intranasal 1 hour later, 24 hours", "result": "significantly retained monocyte levels"},
      {"measurement": "BAL lactate dehydrogenase (LDH)", "setting": "P. aeruginosa; [4]", "result": "significantly reduced"},
      {"measurement": "BAL neutrophil elastase", "setting": "P. aeruginosa; [4]", "result": "significantly reduced"},
      {"measurement": "BAL total protein", "setting": "P. aeruginosa; [4]", "result": "significantly reduced"},
      {"measurement": "BAL neutrophils", "setting": "P. aeruginosa; 10^7 CFU, 0.51 mg/kg intranasal, 24 hours", "result": "reduced neutrophil levels"},
      {"measurement": "survival", "setting": "P. aeruginosa; 10^9 CFU/ml P. aeruginosa, 48 hours post-infection", "result": "significantly improved survival"},
      {"measurement": "bacterial counts in the spleen", "setting": "P. aeruginosa; 24 hours post ELD607 treatment", "result": "reduced bacterial counts in the spleen"},
      {"measurement": "BAL neutrophils, delayed treatment", "setting": "P. aeruginosa; ELD607 added 24 hours after infection", "result": "reduced"},
      {"measurement": "BAL Macrophage Inflammatory Protein 2 (MIP-2)", "setting": "P. aeruginosa; P. aeruginosa infected mice", "result": "reduced"},
      {"measurement": "BAL interleukin-17 (IL-17)", "setting": "P. aeruginosa; P. aeruginosa infected mice", "result": "reduced"},
      {"measurement": "BAL keratinocytes-derived chemokine (KC)", "setting": "P. aeruginosa; P. aeruginosa infected mice", "result": "reduced"},
      {"measurement": "IL-6", "setting": "P. aeruginosa; P. aeruginosa infected mice", "result": "reduced"},
      {"measurement": "interleukin-1β (IL-1β)", "setting": "P. aeruginosa; P. aeruginosa infected mice", "result": "reduced"},
      {"measurement": "lung histology", "setting": "P. aeruginosa; P. aeruginosa infected mice", "result": "normalization of alveoli"},
      {"measurement": "tumor necrosis factor-α (TNF-α)", "setting": "P. aeruginosa; P. aeruginosa infected mice", "result": "reduced"},
      {"measurement": "weight loss", "setting": "P. aeruginosa; intranasal 10^7 CFU/ml P. aeruginosa, 24 hours", "result": "prevented the total weight loss"},
      {"measurement": "Orai1 levels in BAL cells (anti-Orai1 staining)", "setting": "P. aeruginosa; naïve and P. aeruginosa-infected mice", "result": "reduces Orai1 in murine BAL macrophages; also recorded: significant decrease in Orai1 levels"},
      {"measurement": "reduction in lung bacteria", "setting": "P. aeruginosa; whole lung homogenate, 24 h after infection", "result": "~5", "unit": "log10"},
      {"measurement": "lung macrophage levels", "setting": "[1]; [5]", "result": "significantly normalized lung macrophage levels"},
      {"measurement": "neutrophilia", "setting": "[1]; [5]", "result": "reduced neutrophilia"},
      {"measurement": "reduction in lung bacteria", "setting": "[1]; FIG. 19 panels D and I", "result": "3-5 log10"},
      {"measurement": "sepsis (spleen CFUs)", "setting": "[1]; FIG. 19 panels E and J", "result": "significantly reduced sepsis"},
      {"measurement": "overall outcomes", "setting": "[1]; all three infections", "result": "significantly improved outcomes"},
      {"measurement": "pseudovirus infection (% DsRed-positive cells)", "setting": "[2]", "result": "significantly reduced infection"},
      {"measurement": "cytotoxicity (calcein and propidium iodide)", "setting": "[3]", "result": "not significantly different to vehicle control"},
      {"measurement": "transepithelial resistance", "setting": "[3]; before and after treatment", "result": "No differences were found"},
      {"measurement": "BAL eosinophilia", "setting": "house dust mite allergen", "result": "significantly reduced"},
      {"measurement": "BAL macrophages", "setting": "house dust mite allergen", "result": "increased BAL macrophages"},
      {"measurement": "BAL neutrophilia", "setting": "house dust mite allergen", "result": "significantly reduced BAL neutrophilia"},
      {"measurement": "IC50", "setting": "Orai1; Ca^2+ influx, HEK293T, 100 nM thapsigargin, read-out: IC50 (Molar)", "result": 81, "unit": "nM"},
      {"measurement": "Bottom (%)", "setting": "Orai1; fitted curve bottom, text: maximal inhibitions", "result": 37.76, "unit": "%"}
    ]}
  ]
}
